Measured values reported in ChEMBL document CHEMBL1938371, “Discovery of AZD2932, a new Quinazoline Ether Inhibitor with high affinity for VEGFR-2 and PDGFR tyrosine kinases” (Bioorg Med Chem Lett, 2012).
Active and inactive are the calls of the source. The calls are words filed in the database; no cut-off is given here.

Legend:
[1] = target: T1, Receptor-type tyrosine-protein kinase FLT3 (Homo sapiens, UniProt P36888); experiment: Inhibition of FLT3 phosphorylation by cell based assay
T1 sequence (P36888 whole entry): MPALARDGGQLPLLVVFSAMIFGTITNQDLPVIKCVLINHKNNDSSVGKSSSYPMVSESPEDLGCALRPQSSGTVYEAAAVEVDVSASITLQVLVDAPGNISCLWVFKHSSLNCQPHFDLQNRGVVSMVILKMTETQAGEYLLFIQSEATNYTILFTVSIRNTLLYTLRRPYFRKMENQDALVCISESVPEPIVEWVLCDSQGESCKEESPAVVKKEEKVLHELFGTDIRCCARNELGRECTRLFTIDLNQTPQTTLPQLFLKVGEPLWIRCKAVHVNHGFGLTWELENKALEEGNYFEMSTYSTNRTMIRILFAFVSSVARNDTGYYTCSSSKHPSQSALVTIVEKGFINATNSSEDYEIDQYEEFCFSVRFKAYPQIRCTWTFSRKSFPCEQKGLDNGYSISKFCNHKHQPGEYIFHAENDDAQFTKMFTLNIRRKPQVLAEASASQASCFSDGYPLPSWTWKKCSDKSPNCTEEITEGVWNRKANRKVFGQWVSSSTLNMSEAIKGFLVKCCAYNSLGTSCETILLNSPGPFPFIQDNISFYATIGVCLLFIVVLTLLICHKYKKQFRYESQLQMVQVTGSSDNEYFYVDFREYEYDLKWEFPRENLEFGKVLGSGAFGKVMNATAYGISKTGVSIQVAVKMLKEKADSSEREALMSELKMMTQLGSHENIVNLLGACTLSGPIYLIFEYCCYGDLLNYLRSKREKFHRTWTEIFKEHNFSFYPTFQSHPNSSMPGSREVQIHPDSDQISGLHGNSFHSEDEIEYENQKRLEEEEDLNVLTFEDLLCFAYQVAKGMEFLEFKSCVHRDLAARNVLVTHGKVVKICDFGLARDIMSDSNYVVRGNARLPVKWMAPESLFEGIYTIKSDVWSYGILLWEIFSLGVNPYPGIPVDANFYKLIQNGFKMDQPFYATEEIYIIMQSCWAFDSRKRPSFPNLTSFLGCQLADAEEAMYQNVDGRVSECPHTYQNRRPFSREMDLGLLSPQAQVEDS

[2] = Half life in iv dosed rat; assay type: ADME, organism-based; settings: in vivo
[3] = target: Platelet-derived growth factor receptor beta (Homo sapiens, UniProt P09619); experiment: Inhibition of PDGFRbeta phosphorylation by cell based assay
Platelet-derived growth factor receptor beta, sequence (P09619 whole entry): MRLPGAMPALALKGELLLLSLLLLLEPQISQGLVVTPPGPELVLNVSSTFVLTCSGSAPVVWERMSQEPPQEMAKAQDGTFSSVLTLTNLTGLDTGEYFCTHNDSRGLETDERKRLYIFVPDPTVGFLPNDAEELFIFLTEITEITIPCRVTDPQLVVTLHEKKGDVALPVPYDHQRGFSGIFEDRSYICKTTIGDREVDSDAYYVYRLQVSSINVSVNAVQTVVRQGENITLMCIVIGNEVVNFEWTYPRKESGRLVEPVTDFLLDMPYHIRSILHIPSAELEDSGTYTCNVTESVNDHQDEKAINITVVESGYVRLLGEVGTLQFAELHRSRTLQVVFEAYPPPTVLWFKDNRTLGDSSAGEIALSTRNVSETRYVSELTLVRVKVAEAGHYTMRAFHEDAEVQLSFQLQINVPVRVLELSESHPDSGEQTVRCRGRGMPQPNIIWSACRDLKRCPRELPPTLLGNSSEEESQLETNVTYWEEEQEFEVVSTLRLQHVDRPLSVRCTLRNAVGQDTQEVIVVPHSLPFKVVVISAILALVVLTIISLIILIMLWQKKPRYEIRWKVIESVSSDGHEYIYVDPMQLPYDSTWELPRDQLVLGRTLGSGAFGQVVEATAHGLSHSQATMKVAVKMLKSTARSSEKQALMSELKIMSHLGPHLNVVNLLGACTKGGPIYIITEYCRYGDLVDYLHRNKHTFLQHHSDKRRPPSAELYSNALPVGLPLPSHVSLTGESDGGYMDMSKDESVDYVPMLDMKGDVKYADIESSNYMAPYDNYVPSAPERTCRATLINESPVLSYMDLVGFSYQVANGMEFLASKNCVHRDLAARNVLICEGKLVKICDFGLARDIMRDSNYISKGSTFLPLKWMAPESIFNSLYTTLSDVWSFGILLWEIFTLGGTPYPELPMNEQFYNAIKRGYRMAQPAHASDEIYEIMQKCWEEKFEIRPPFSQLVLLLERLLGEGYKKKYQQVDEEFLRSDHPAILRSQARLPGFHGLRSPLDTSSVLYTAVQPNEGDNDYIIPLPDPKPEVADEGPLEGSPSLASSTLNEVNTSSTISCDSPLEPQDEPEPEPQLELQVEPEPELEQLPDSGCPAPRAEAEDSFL

[4] = Clearance in rat; assay type: ADME, organism-based; settings: in vivo
[5] = target: Macrophage colony-stimulating factor 1 receptor (Homo sapiens, UniProt P07333); experiment: Inhibition of CSF1R phosphorylation by cell based assay
Macrophage colony-stimulating factor 1 receptor, sequence (P07333 whole entry): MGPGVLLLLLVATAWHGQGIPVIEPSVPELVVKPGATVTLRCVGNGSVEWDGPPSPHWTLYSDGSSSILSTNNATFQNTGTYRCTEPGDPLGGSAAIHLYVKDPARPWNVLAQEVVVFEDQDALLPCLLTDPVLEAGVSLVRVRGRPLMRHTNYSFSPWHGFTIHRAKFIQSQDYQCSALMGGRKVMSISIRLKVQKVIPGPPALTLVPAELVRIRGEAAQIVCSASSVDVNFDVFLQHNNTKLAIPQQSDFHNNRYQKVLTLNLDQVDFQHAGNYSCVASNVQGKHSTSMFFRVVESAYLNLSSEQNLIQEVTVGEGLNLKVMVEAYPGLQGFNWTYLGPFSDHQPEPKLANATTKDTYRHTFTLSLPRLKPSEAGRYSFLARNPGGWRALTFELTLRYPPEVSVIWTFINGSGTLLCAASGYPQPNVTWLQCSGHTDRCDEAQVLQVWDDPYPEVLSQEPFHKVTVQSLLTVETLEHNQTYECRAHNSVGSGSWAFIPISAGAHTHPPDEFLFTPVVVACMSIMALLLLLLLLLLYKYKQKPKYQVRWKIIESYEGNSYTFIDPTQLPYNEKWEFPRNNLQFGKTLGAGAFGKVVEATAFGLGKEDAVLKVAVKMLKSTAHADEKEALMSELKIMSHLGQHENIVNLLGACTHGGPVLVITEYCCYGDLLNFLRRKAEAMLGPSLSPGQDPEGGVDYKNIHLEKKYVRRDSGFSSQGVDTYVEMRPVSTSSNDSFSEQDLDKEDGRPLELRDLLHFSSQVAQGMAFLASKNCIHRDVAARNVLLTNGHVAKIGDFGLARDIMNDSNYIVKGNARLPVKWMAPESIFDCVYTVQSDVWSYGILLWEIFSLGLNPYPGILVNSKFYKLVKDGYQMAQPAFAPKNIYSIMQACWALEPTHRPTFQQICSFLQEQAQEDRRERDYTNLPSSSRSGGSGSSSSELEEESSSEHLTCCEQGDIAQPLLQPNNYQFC

[6] = Chemical stability of the compound at pH 1; assay type: physicochemical; settings: buffer
[7] = target: Vascular endothelial growth factor receptor 2 (Homo sapiens) (UniProt P35968); experiment: Inhibition of VEGFR2 phosphorylation by cell based assay
[8] = target: Platelet-derived growth factor receptor alpha (Homo sapiens) (UniProt P16234); experiment: Inhibition of PDGFRalpha phosphorylation by cell based assay
Platelet-derived growth factor receptor alpha (Homo sapiens), sequence (P16234 whole entry): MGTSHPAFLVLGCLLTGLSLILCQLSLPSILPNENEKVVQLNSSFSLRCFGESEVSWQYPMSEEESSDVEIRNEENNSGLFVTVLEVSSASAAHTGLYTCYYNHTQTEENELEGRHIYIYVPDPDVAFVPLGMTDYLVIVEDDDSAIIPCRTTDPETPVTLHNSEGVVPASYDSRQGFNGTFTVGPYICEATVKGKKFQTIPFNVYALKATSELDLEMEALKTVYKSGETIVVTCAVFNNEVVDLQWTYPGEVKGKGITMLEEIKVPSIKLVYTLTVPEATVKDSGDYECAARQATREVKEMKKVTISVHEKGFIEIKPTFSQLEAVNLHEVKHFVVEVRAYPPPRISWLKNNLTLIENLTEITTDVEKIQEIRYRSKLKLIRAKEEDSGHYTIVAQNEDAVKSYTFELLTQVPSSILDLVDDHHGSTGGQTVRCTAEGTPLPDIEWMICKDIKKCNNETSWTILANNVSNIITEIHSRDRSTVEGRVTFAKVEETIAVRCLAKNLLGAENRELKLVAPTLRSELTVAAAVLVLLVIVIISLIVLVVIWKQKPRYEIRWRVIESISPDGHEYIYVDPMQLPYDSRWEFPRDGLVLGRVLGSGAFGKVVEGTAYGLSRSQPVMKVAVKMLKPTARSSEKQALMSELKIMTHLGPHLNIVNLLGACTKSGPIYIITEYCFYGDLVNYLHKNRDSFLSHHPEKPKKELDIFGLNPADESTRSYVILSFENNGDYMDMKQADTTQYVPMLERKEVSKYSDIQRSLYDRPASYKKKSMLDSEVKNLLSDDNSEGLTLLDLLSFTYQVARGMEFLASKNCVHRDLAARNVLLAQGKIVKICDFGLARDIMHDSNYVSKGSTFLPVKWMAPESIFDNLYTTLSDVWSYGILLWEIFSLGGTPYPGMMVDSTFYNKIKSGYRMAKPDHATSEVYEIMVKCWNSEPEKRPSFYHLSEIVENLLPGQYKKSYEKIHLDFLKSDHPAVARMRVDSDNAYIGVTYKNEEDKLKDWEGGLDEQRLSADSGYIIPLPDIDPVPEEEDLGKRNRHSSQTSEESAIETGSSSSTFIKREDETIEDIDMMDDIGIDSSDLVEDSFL

[9] = Oral bioavailability in rat; assay type: ADME, organism-based; settings: in vivo
[10] = target: Aurora kinase B (Homo sapiens, UniProt Q96GD4); experiment: Inhibition of aurora-B
Aurora kinase B, sequence (Q96GD4 whole entry): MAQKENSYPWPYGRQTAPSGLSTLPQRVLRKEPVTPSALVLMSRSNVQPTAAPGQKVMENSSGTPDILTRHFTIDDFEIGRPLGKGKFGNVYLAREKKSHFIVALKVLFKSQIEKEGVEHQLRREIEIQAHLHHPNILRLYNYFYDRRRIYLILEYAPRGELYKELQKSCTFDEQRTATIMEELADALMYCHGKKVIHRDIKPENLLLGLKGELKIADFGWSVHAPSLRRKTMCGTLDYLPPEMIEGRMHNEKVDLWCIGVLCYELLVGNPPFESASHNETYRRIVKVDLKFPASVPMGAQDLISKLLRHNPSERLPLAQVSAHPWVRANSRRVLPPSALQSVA

[11] = target: Mast/stem cell growth factor receptor Kit (Homo sapiens) (UniProt P10721); experiment: Inhibition of c-Kit
Mast/stem cell growth factor receptor Kit (Homo sapiens), sequence (P10721 whole entry): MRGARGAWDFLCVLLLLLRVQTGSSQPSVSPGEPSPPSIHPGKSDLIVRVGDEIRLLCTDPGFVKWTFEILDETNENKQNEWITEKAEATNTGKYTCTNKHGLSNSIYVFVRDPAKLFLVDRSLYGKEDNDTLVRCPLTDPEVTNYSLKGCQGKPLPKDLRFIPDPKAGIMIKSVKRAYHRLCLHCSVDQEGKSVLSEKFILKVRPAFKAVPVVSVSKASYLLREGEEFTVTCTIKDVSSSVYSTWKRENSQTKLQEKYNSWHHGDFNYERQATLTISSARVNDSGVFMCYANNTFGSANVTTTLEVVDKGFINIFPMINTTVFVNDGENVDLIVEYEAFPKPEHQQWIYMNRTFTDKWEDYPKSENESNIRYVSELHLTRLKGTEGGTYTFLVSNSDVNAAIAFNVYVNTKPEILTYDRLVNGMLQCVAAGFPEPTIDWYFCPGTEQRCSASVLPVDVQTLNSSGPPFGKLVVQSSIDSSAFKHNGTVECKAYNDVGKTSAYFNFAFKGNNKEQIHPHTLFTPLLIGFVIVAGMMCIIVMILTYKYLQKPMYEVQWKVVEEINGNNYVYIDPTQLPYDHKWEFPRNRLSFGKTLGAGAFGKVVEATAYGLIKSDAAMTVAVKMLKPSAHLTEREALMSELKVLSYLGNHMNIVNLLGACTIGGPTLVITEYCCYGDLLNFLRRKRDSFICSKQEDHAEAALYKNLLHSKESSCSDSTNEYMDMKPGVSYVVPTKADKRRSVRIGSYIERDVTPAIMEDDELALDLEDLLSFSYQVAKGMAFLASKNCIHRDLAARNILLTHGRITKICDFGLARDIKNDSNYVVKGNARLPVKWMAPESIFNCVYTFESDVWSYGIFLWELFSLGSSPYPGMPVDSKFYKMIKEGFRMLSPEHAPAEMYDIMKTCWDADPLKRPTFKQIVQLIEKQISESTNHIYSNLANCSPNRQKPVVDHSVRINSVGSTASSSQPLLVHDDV

[12] = tested on: Mus musculus; experiment: Inhibition of PDGFRalpha phosphorylation in rat C6 cells xenografted in po dosed nude mouse after 6 hrs; assay type: functional, organism-based
[13] = tested on: Mus musculus; experiment: Inhibition of PDGFRalpha phosphorylation in rat C6 cells xenografted in nude mouse at 3 mg/kg, po; assay type: functional, organism-based; parameters: dose 3 mg/kg; settings: TDE = time-dependent effect

SMILES | IC50 [1] [nM] | half-life [2] [min] | IC50 [3] [nM] | clearance [4] [mL/min/kg] | IC50 [5] [nM] | Stability [6] [days] | IC50 [7] [nM] | inhibition [8] | bioavailability [9] [%] | IC50 [10] [nM] | inhibition [11] | INH [8] [nM] | inhibition [12] | inhibition [13]
COc1cccc(NC(=O)Cn2cc(Nc3ncnc4cc(OC)c(OC)cc34)cn2)c1 | > 20 | – | 10 | – | > 900 | 0.1 | 25 | Active | < 20 | > 10 | – | – | – | –
COc1cccc(NC(=O)Cc2ccc(Nc3ncnc4cc(OC)c(OC)cc34)cc2)c1 | > 60 | – | 10 | – | > 1000 | – | 175 | Active | – | – | – | – | – | –
COc1cc2ncnc(Oc3cnn(CC(=O)Nc4ccc(N(C)C)cn4)c3)c2cc1OC | 3 | – | 3 | – | 20 | 0.1 | 39 | Active | < 20 | – | – | – | – | –
COc1cc2ncnc(Oc3ccc(CC(=O)Nc4cnn(C)c4)cc3)c2cc1OC | 80 | – | 40 | – | > 1000 | – | 667 | Active | – | – | – | – | – | –
COc1cccc(NC(=O)Cn2cc(Oc3ccnc4cc(OC)c(C#N)cc34)cn2)c1 | 40 | – | 2 | – | 50 | 0.1 | 282 | Active | < 20 | – | – | – | – | –
COc1cc2ncnc(Oc3ccc(CC(=O)Nc4ccc(N(C)C)cn4)cc3)c2cc1OC | 9 | – | 5 | – | 600 | – | 22 | Active | – | – | – | – | – | –
COc1cc2ncnc(Nc3cnn(CC(=O)Nc4ccc(N(C)C)cn4)c3)c2cc1OC | 10 | – | > 200 | – | > 1000 | 0.1 | 453 | Active | < 20 | – | – | – | – | –
COc1cccc(NC(=O)Cn2cc(Oc3ncnc4cc(OC)cc(OC)c34)cn2)c1 | 5 | – | 2 | – | 100 | 0.1 | 30 | Active | < 20 | – | – | – | – | –
COc1cc2ncnc(Nc3cnn(CC(=O)Nc4ccc(N(C)C)cc4)c3)c2cc1OC | 4 | – | 6 | – | 600 | 0.1 | 101 | Active | < 20 | > 10 | – | – | – | –
COc1cc2ncnc(Nc3cnn(CC(=O)Nc4cccc(F)c4)c3)c2cc1OC | 4 | – | 10 | – | > 1000 | 0.1 | 51 | Active | < 20 | < 0.2 | – | – | – | –
COc1cccc(CNC(=O)c2ccc(Oc3ncnc4cc(OC)c(OC)cc34)cc2)c1 | > 400 | – | 700 | – | > 1000 | – | 3060 | Active | – | – | – | – | – | –
COc1cccc(NC(=O)Cn2cc(Oc3ncnc4cc(OCCN5CCCC5)c(OC)cc34)cn2)c1 | 5 | – | 1 | – | 30 | 0.1 | 7 | Active | < 20 | – | – | – | – | –
CCc1cc(NC(=O)Cc2ccc(Oc3ncnc4cc(OC)c(OC)cc34)cc2)n[nH]1 | 5 | – | 4 | – | > 600 | – | < 5 | Active | – | – | – | – | – | –
COc1cccc(COc2ccc(Oc3ncnc4cc(OC)c(OC)cc34)cc2)c1 | 20 | – | 20 | – | 300 | – | 128 | Active | – | – | – | – | – | –
CCn1ccc(NC(=O)Cc2ccc(Oc3ncnc4cc(OC)c(OC)cc34)cc2)n1 | 20 | – | 10 | – | > 1000 | – | 172 | Active | – | – | – | – | – | –
COc1cc2ncnc(Oc3ccc(CC(=O)Nc4cnn(C(C)C)c4)cc3)c2cc1OC | – | – | – | – | – | – | – | – | – | – | – | 2 | Dose-dependent effect | tde

Now from value to compound, other results behind:

IC50 [1] [nM] | half-life [2] [min] | IC50 [3] [nM] | clearance [4] [mL/min/kg] | IC50 [5] [nM] | Stability [6] [days] | IC50 [7] [nM] | inhibition [8] | bioavailability [9] [%] | IC50 [10] [nM] | inhibition [11] | INH [8] [nM] | SMILES | inhibition [12] | inhibition [13]
10 | 24 | 3 | 75 | 400 | 0.1 | 31 | Active | < 20 | – | – | – | COc1cccc(NC(=O)Cn2cc(Oc3ncnc4cc(OC)c(OCCN5CCCCC5)cc34)cn2)c1 | – | –
3 | – | 2 | – | 90 | 0.1 | < 5 | Active | < 20 | – | – | – | COCCOc1cc2c(Oc3cnn(CC(=O)Nc4cccc(OC)c4)c3)ncnc2cc1OC | – | –
> 1000 | – | 300 | – | > 1000 | – | 1010 | Active | – | – | – | – | COc1cccc(NC(=O)Cc2cccc(Oc3ncnc4cc(OC)c(OC)cc34)c2)c1 | – | –
7 | – | 0.9 | – | 300 | – | 8 | Active | – | – | – | – | COc1cccc(NC(=O)Cc2ccc(Oc3ncnc4cc(OC)c(OC)cc34)cc2)c1 | – | –
> 1000 | – | 300 | – | > 1000 | – | 6140 | Active | – | – | – | – | COc1cccc(C(=O)NCc2ccc(Oc3ncnc4cc(OC)c(OC)cc34)cc2)c1 | – | –
8 | – | 9 | – | > 1000 | – | 177 | Active | – | – | – | – | COc1cccc(NC(=O)NCc2ccc(Oc3ncnc4cc(OC)c(OC)cc34)cc2)c1 | – | –
20 | – | 2 | – | 40 | 0.1 | 57 | Active | < 20 | – | – | – | COc1cccc(NC(=O)Cn2cc(Oc3ccnc4cc(OC)c(OC)cc34)cn2)c1 | – | –
2 | – | 0.8 | – | 10 | 0.1 | 0.4 | Active | < 20 | – | – | – | COc1cccc(NC(=O)Cn2cc(Oc3ncnc4cc(OC)c(OC)cc34)cn2)c1 | – | –
> 1000 | – | > 1000 | – | > 1000 | – | > 10000 | Active | – | – | inactive | – | CCn1cc(NC(=O)Cc2cc(Oc3ccnc4cc(OC)c(OC)cc34)n[nH]2)cn1 | – | –
4 | – | 4 | – | 200 | 0.1 | 35 | Active | < 20 | – | – | – | CCn1cc(NC(=O)Cn2cc(Oc3ncnc4cc(OC)c(OC)cc34)cn2)cn1 | – | –
10 | – | 4 | – | 30 | – | 209 | Active | – | – | – | – | COc1cccc(CC(=O)Nc2ccc(Oc3ncnc4cc(OC)c(OC)cc34)cc2)c1 | – | –
10 | – | 3 | – | > 800 | – | 29 | Active | – | – | – | – | CCn1cc(NC(=O)Cc2ccc(Oc3ncnc4cc(OC)c(OC)cc34)cc2)cn1 | – | –
2 | – | 0.3 | – | 8 | 0.1 | 0.2 | Active | < 20 | – | – | – | COCCOc1cc2ncnc(Oc3cnn(CC(=O)Nc4cccc(OC)c4)c3)c2cc1OC | – | –
> 800 | – | > 2000 | – | > 1000 | – | > 10000 | Active | – | – | – | – | COc1cc2ncnc(Oc3ccc(CC(=O)Nc4cn[nH]c4)cc3)c2cc1OC | – | –
> 1000 | – | > 1000 | – | > 1000 | – | > 10000 | Active | – | – | – | – | COc1cccc(S(=O)(=O)NCc2ccc(Oc3ncnc4cc(OC)c(OC)cc34)cc2)c1 | – | –
4 | – | 0.4 | – | 40 | – | 12 | Active | – | – | – | – | CCn1cc(NC(=O)Cc2ccc(Oc3ccnc4cc(OC)c(OC)cc34)cc2)cn1 | – | –
